In assay [1] the test system is BCEC confluent monolayers. As to the kind of experiment: BCEC scratch assay. The class given is cell-based, bovine. Conditions: 40 μM ManN or 50 ng/ml of VEGF; after 48 hours. As to the method:
BCECs (passage 6-10) and HUVEC (passage 6-8) were used in this assay. Cells were grown until about 80% confluency in 6-well plates, washed twice with PBS and then starved in serum-free DMEM (low Glucose, Hyclone) for 5 hrs before making a “scratch” using 1 ml tip. Cell monolayers were briefly washed once with serum-free media, followed by various treatments in media containing 1% FBS. 48 hrs later, the assay was stopped by adding 2 ml 4% paraformaldehyde. 20 min later, fixed cells were stained with 1 ml Crystal Violet (Sigma). Plates were washed gently under the running tap water and air-dried before taking pictures. Images were acquired by ZEISS Discovery […] microscopy equipped with […] camera. Quantification of wound closure was done using AxioVision LE Rel.4.4 software. Six images were taken for each sample and six measurements (in pixel) were made on each image using AxioVision LE Re1.4.4 software.

For another assay, the system named is VEGFR2. Briefly: VEGFR2 western blot in BCECs (molecular mass, phosphorylation, PNGase F). Particulars: VEGF at 5 ng/ml for 24 hours. In kind it is cell-based, bovine. As to the method:
Glycerol-free PNGase F was obtained from New England Biolabs (Ipswich, MA). Briefly, BCECs were lysed with NP-40 containing proteinase inhibitors (Thermo Scientific, Waltham, MA). Lysates were cleared at 4° C. at 5000 g for 25 mins. Total protein content was measured using Pierce BCA protein assay kit (Thermo Scientific). 20 mg of protein was mixed with 10× denaturing buffer and H2O to a total volume of […]. Glycoproteins were denatured at 100° C. for 10 mins, followed by adding Glycobuffer and PNGase F. The reaction was carried out at 37° C. for 2 hr.
Cells were allowed to reach-80% confluency in 12-well plates. […] At various time points, plates were taken out of the incubator and kept on ice. […] Lysates were collected and mixed with 4× Bolt LDS Sample Buffer (Novex, Carlsbad, CA) in the presence of Halt protease inhibitors and phosphatase inhibitor cocktail (ThermoFisher scientific, #NP0007). […] HUVECs (passage 6-8) were plated in EBM-2 basal medium (Lonza) with 0.2% FBS. Following overnight culture, cells were serum-starved in EBM-2 medium for 4 hrs prior to treatment with 50 ng/ml of VEGF165 or vehicle controls for various lengths. Equal amounts of protein lysates were analyzed by SDS-PAGE and blotted with the indicated antibodies. Proteins were transferred using Tris-Glycine buffer with 20% Methanol (Proteonomics grade) (Apex BioResearch Products). Membranes were first incubated with 5% milk in TBST, pH 7.6 (TEKnova, Hollister, CA), followed by blotting with primary and secondary antibodies. ECL anti-rabbit IgG, horseradish peroxidase linked whole antibody from donkey or sheep anti-mouse were obtained from GE Healthcare (UK limited). SuperSignal West Dura Extended Duration substrate was from ThermoFisher Scientific. In some cases, the same PVDF membranes were stripped by 8-min incubation in the Restore Plus Western Blot Stripping Buffer (ThermoFisher Scientific) to show total specific protein expression, followed by second stripping for (3-actin expression.

The test system of another assay is skin wound. As to the kind of experiment: Skin wound healing model (splinted wound). Particulars: topical 20 μg daily; mice; PBS group 81.5%. The class given is in vivo, mouse. An excerpt: The model has been previously described. Briefly, C57BL/6 female mice (8-10 weeks old) were obtained from Jackson labs (Sacramento, CA). A fresh, full-thickness punch wound (4 mm diameter) using a punch (Acu Punch, Acuderm inc. Ft. Lauderdale, FL) splinted with a sterile neoprene ring (6-mm outer diameter and 4-mm inner diameter), fastened with 5-6 sutures (4-0 nylon) under the influence of Isoflurane was created on the back of the animal in a Class II Biological Safety Cabinet. For all surgical procedures, sterile technique was followed. Buprenorphine was given subcutaneously prior to awakening from anesthesia for anticipated pain. Mice were monitored until fully awake and were housed individually to minimize damage/biting/fighting to the surgical site. […] Treatment agents were prepared in PBS, sterile-filtered and 25 μl solution was applied daily directly to a wound bed for the first 4-5 days under the influence of Isoflurane, followed by daily observation. Wound closure was monitored by regular imaging and the wound area was quantified using ImageJ (National Institutes of Health, Bethesda, MD, USA). […] Epithelial gap was measured histomorphometrically using AxioVision LE Rel.4.4 software. […] Small vessels stained positive for CD31 were counted microscopically on 10 fields (20×) taken around the wound.

Regarding VEGF, the “closure of the scratched area vs control” value in assay [1] is listed as “significantly accelerated BCEC migration and/or proliferation”. For the same substance, the “effect of VEGF alone on VEGFR2 molecular mass” value in the assay on VEGFR2 is on record as “no effect on molecular mass”. Further, the “average closure of the wound on day 4” value with skin wound was 66.9%.

These data come from patent US20250275993A1, “GLYCOSYLATION INHIBITORS AS THERAPEUTICS FOR STROKE” (The Regents of the University of California, priority 2022, published 2025).
